The source of these data is US20190175766A1, “STABILIZED CROSSLINKED NANOBUBBLES FOR DIAGNOSTIC AND THERAPEUTIC APPLICATIONS” (CASE WESTERN RESERVE UNIVERSITY, priority 2016, published 2019).

Experiment [1] has as its system LS174T cell line. Kind of experiment: Cell toxicity test (WST-1). In kind it is cell-based, human. Here is the method:
LS174-T human colorectal adenocarcinoma cells (ATCC, Manassas, Va.) were cultured in complete MEM medium (10% fetal bovine serum, 1% penicillin-streptomycin; Invitrogen, Carlsbad, Calif.) and placed in a humidified atmosphere at 37° C. and 5% CO2. Cells were passaged until they were 90% confluent, then detached with 0.25% trypsin-EDTA (Invitrogen, Carlsbad, Calif.).
One day prior to the treatment, cells were passaged at confluence and plated in flat bottom, clear, cell culture treated 96-well plates (Falcon, Franklin Lakes, N.J.) using a cell density of 2.5×10^4 cells/ml, 100 ul for each well overnight. After 24 h of incubation, the surface medium were aspirated carefully and cells were treated for 3 h as following groups: • 1 No treat Incomplete MEM medium were added. • 2. Dox 1 μg/ml Doxorubicin in incomplete MEM medium were added. • 3. Dox-NB 2000 times diluted original Dox-NB in incomplete MEM medium were added. • 4. […]
Plate wells were filled with relevant treatment medium, sealed with Parafilm® M (Fisher Scientific; Pittsburgh, Pa.), then inverted the plate to ensure the cells contact with Dox-NB for 20 min. […] After that, 1:10 diluted solution of WST-1 reagent ( ) replaced the medium and incubated for 1 h and then the plate was scanned with a TECAN plate reader (infinite M200, San Jose, Calif.) at 450 nm.

Experiment [2] relates to LS174-T cells. Kind of experiment: Measurement of intracellular drug uptake. The format is cell-based, human. Particulars: with and without TUS. The procedure:
LS174-T cells were grown in a 12-well cell culture plate at a cell concentration of 2.5×10^4 cells/ml one day before the treatment. The treatment groups were the same as cell toxicity test above. After 2 h treatment in incubator, the drugs were aspirated and washed with sterile PBS 3 times. The attached cells were fixed with 3% formaldehyde solution for 10 min. After 3 times wash with PBS, the cells of different treatment groups were imaged at 5× and 20× on the Zeiss Axio Observer Z1 motorized FL microscope with the same parameter and scanned zones. Average Dox fluorescence of cells in different treatment groups was calculated by ImageJ.

With `COc1cccc2c1C(=O)c1c(O)c3c(c(O)c1C2=O)C[C@@](O)(C(=O)CO)C[C@@H]3O[C@H]1C[C@H](N)[C@H](O)[C@H](C)O1` [Dox, Doxorubicin], the “Fluorescence value (cell viability test)” value came out at 0.28 ± 0.06 in experiment [1] (plus therapeutic ultrasound (TUS) 3 MHz, 2 W/cm2, 1 min) and 0.36 ± 0.10 in experiment [1] (without TUS, Dox 1 μg/ml, Dox-NB 2000 times diluted). In addition, in experiment [2], the “location of Dox in treated cells” value was “mainly located in nuclei”.
